For this experiment, the target named is T1, recombinant autotaxin (Homo sapiens, UniProt Q13822).
T1 construct: made in house; host or cells: Hi5 insect cells (baculovirus)
As to the kind of experiment: Autotaxin test (enzyme test), Amplex Red fluorescence with LPC substrate. Type of experiment: biochemical. As to conditions: autotaxin inhibition (enzyme test); for remaining activity at 10 µM: 10 μM compound, read-out: % Control at 10 μM. As to the method:
Autotaxin Inhibition (Enzyme Test)
Autotaxin Test (Enzyme Test)
The autotaxin activity is measured indirectly using Amplex Red reagent. Amplex Red is measured here as fluorogenic indicator for the H2O2 formed. In detail, autotaxin converts the substrate lysophosphatidylcholine (LPC) into phosphocholine and lysophosphatidylic acid (LPA). After this reaction, the phosphocholine is reacted with alkaline phosphatase to give inorganic phosphate and choline. In the next step, choline is oxidised by choline oxidase to give betaine, with formation of H2O2. H2O2 reacts with Amplex Red reagent in the presence of peroxidase (horseradish peroxidase) in a 1:1 stoichiometry and forms the highly fluorescent resorufin. The fluorescence is measured in a reaction-dependent kinetic mode in order that fluorescent signals from possible other fluorescent substances which are not involved in the reaction can be corrected out.
3 μl of a standard solution or of the test substances (substances with the name A(n)) in individual concentrations dissolved in 20 mM Hepes pH 7.2 with a maximum of 11% of DMSO are pre-incubated together with 20 μl (19 ng) of highly purified recombinant autotaxin in test buffer in a black microtitre plate provided with 384 wells at 22° C. for 30 min. The reaction is then initiated by addition of 10 μl of L-α-lysophosphatidylcholine (LPC), where the final concentration of LPC is 75 μM. The mixture is incubated at 37° C. for 90 min. After the incubation, Amplex Red reagent, peroxidase (horseradish peroxidase) and choline oxidase is added, and the fluorescence is immediately measured at 612 nm with excitation of 485 nm in a “Tecan Ultra multimode” reader. The activity of autotaxin is calculated indirectly via detection of the H2O2 formed.
• Microtitre plate: PS microplate, 384 wells, small volume, black Corning, Cat#3677 • Protein: recombinant autotaxin (Baculovirale Hi5 Expression) • Substrate: L-α-lysophosphatidylcholine (chicken egg)); Avanti Polar Lipids #830071 P • Standard: C14 LPA, Avanti Polar Lipids, Cat#857120P • Detection reagent: Amplex Red reagent; Invitrogen #A12222; 5 mg dissolved in 1.923 ml of DMSO peroxidase type VI-A (horseradish) from Sigma #P6782; 5 mg dissolved in 7.45 ml of test buffer, choline oxidase; Sigma # C5896; 50 U dissolved in 2.47 ml of test buffer • Detection reagent mix: 1:50 dilution of detection reagent in test buffer • Test buffer: 10 mM Tris HCl, Merck, Cat #1.08219, pH 8, 1 mM; CaCl2×2 H2O, Merck #1.02382

The text below walks through data of patent US20120115852A1, “HETEROCYCLIC COMPOUNDS AS AUTOTAXIN INHIBITORS” (Merck Patent Gesellschaft Mit Beschrankter Haftung, priority 2009, published 2012).

SMILES strings stand for the structures. Where only a bound is given, the exact number is not on record here.

What is called IC50 is the concentration needed to halve the response being measured. Regarding `O=C1Nc2ccc(-c3ccccc3F)cc2C(=O)N2CCN(C(=O)c3ccc4[nH]nnc4c3)CC12` (stereo not shown) [Compound A14, 2-(1H-Benzotriazole-5-carbonyl)-7-(2-fluorophenyl)-1,3,4,11a-tetrahydro-2H,10H-2,4a,10-triaza-dibenzo[a,d]cycloheptene-5,11-dione], the remaining activity at 10 µM is 38% and the half-maximal inhibitory concentration (IC50) is greater than 1000 nM.

Regarding `O=C1Nc2ccc(-c3ccccc3F)cc2C(=O)N2CCN(C(=O)c3ccccn3)CC12` (stereo not shown) [Compound A15, 7-(2-Fluorophenyl)-2-(pyridine-2-carbonyl)-1,3,4,11a-tetrahydro-2H,10H-2,4a,10-triaza-dibenzo[a,d]cycloheptene-5,11-dione], the remaining activity at 10 µM turned out to be 55% and the IC50 was greater than 1000 nM.

Take `O=C1Nc2ccc(-c3ccccc3F)cc2C(=O)N2CCN(C(=O)[C@@H]3CSCN3)C[C@@H]12` [Compound A16, (S)-7-(2-Fluorophenyl)-2-((R)-thiazolidine-4-carbonyl)-1,3,4,11a-tetrahydro-2H,10H-2,4a,10-triazadibenzo[a,d]cycloheptene-5,11-dione]: the remaining activity at 10 µM worked out at 18% and the IC50 was greater than 1000 nM.

As to `CC(C)(C)CC(=O)N1CCN2C(=O)c3cc(-c4ccccc4F)ccc3NC(=O)[C@@H]2C1` [Compound A17, (S)-2-(3,3-Dimethylbutyryl)-7-(2-fluorophenyl)-1,3,4,11a-tetrahydro-2H,10H-2,4a,10-triaza-dibenzo[a,d]cycloheptene-5,11-dione], the IC50 fell in the range of 100 to 1000 nM.

`CC(C)(C)CC(=O)N1CCN2C(=O)c3cc(-c4ccc(C(F)(F)F)cc4)ccc3NC(=O)C2C1` (stereo not shown) [Compound A18, 2-(3,3-Dimethylbutyryl)-7-(4-trifluoromethylphenyl)-1,3,4,11a-tetrahydro-2H,10H-2,4a,10-triaza-dibenzo[a,d]cycloheptene-5,11-dione]: the remaining activity at 10 µM worked out at 70% and the 50% inhibitory concentration (IC50) is greater than 1000 nM.

With `CC(C)(C)CC(=O)N1CCN2C(=O)c3cc(-c4cc(Cl)cc(Cl)c4)ccc3NC(=O)C2C1` (stereo not shown) [Compound A19, 7-(3,5-Dichlorophenyl)-2-(3,3-dimethylbutyryl)-1,3,4,11a-tetrahydro-2H,10H-2,4a,10-triaza-dibenzo[a,d]cycloheptene-5,11-dione], the remaining activity at 10 µM was 65% and the IC50 was greater than 1000 nM.

For the molecule `O=C1Nc2ccc(-c3ccccc3F)cc2C(=O)N2CCN(C(=O)CCc3ccccn3)CC12` (stereo not shown) [Compound A20, 7-(2-Fluorophenyl)-2-(3-pyridin-2-ylpropionyl)-1,3,4,11a-tetrahydro-2H,10H-2,4a,10-triaza-dibenzo[a,d]cycloheptene-5,11-dione], the remaining activity at 10 µM turned out to be 63% and the half-maximal inhibitory concentration (IC50) is greater than 1000 nM.

As to `O=C1Nc2ccc(-c3ccc(Cl)cc3)cc2C(=O)N2CCN(C(=O)[C@@H]3CCCCN3)CC12` (stereo partly drawn) [Compound A21, 7-(4-Chlorophenyl)-2-((S)-piperidine-2-carbonyl)-1,3,4,11a-tetrahydro-2H,10H-2,4a,10-triaza-dibenzo[a,d]cycloheptene-5,11-dione], the remaining activity at 10 µM was determined as 82% and the 50% inhibitory concentration (IC50) is greater than 1000 nM.

Consider `CS(=O)(=O)CC(=O)N1CCN2C(=O)c3cc(-c4ccc(Cl)cc4)ccc3NC(=O)C2C1` (stereo not shown) [Compound A22, 7-(4-Chlorophenyl)-2-(2-methanesulfonylacetyl)-1,3,4,11a-tetrahydro-2H,10H-2,4a,10-triaza-dibenzo[a,d]cycloheptene-5,11-dione], for which the remaining activity at 10 µM came out at 61% and the IC50 is greater than 1000 nM.

Regarding `CCCc1nn(C)cc1C(=O)N1CCN2C(=O)c3cc(-c4ccc(Cl)cc4)ccc3NC(=O)C2C1` (stereo not shown) [Compound A23, 7-(4-Chlorophenyl)-2-(1-methyl-3-propyl-1H-pyrazole-4-carbonyl)-1,3,4,11a-tetrahydro-2H,10H-2,4a,10-triazadibenzo[a,d]cycloheptene-5,11-dione], the remaining activity at 10 µM was determined as 54% and the IC50 was greater than 1000 nM.

For the molecule `O=C1Nc2ccc(-c3ccc(Cl)cc3)cc2C(=O)N2CCN(C(=O)CC3CCCCC3)CC12` (stereo not shown) [Compound A24, 7-(4-Chlorophenyl)-2-(2-cyclohexylacetyl)-1,3,4,11a-tetrahydro-2H,10H-2,4a,10-triaza-dibenzo[a,d]cycloheptene-5,11-dione], the remaining activity at 10 µM amounted to 67% and the half-inhibitory concentration (IC50) was greater than 1000 nM.

Take `O=C1Nc2ccc(-c3ccc(Cl)cc3)cc2C(=O)N2CCN(C(=O)CC3CCCC3)CC12` (stereo not shown) [Compound A25, 7-(4-Chlorophenyl)-2-(2-cyclopentylacetyl)-1,3,4,11a-tetrahydro-2H,10H-2,4a,10-triaza-dibenzo[a,d]cycloheptene-5,11-dione]: the remaining activity at 10 µM was found to be 11% and the IC50 is greater than 1000 nM.

On to `Cn1cc(CCC(=O)N2CCN3C(=O)c4cc(-c5ccc(Cl)cc5)ccc4NC(=O)C3C2)cn1` (stereo not shown) [Compound A26, 7-(4-Chlorophenyl)-2-[3-(1-methyl-1H-pyrazol-4-yl)-propionyl]-1,3,4,11a-tetrahydro-2H,10H-2,4a,10-triazadibenzo[a,d]cycloheptene-5,11-dione], for which the remaining activity at 10 µM is 12% and the IC50 is greater than 1000 nM.

Take `O=C1Nc2ccc(-c3ccc(Cl)cc3F)cc2C(=O)N2CCN(C(=O)CC3CC3)CC12` (stereo not shown) [Compound A28, 7-(4-Chloro-2-fluorophenyl)-2-(2-cyclopropylacetyl)-1,3,4,11a-tetrahydro-2H,10H-2,4a,10-triaza-dibenzo[a,d]cycloheptene-5,11-dione]: the remaining activity at 10 µM was found to be 4% and the IC50 was greater than 1000 nM.

`O=C1Nc2ccc(-c3ccc(Cl)cc3)cc2C(=O)N2CCN(C(=O)Cc3ccccn3)CC12` (stereo not shown) [Compound A29, 7-(4-Chlorophenyl)-2-(2-pyridin-2-ylacetyl)-1,3,4,11a-tetrahydro-2H,10H-2,4a,10-triaza-dibenzo[a,d]cycloheptene-5,11-dione]: the remaining activity at 10 µM is 51% and the IC50 is greater than 1000 nM.

With `O=C1Nc2ccc(-c3ccc(Cl)cc3F)cc2C(=O)N2CCN(C(=O)Cc3ccccn3)CC12` (stereo not shown) [Compound A30, 7-(4-Chloro-2-fluorophenyl)-2-(2-pyridin-2-ylacetyl)-1,3,4,11a-tetrahydro-2H,10H-2,4a,10-triaza-dibenzo[a,d]cycloheptene-5,11-dione], the remaining activity at 10 µM came out at 23% and the IC50 is greater than 1000 nM.

`O=C1Nc2ccc(-c3ccc(Cl)cc3F)cc2C(=O)N2CCN(C(=O)Cc3ccccc3)CC12` (stereo not shown) [Compound A31, 7-(4-Chloro-2-fluorophenyl)-2-phenylacetyl-1,3,4,11a-tetrahydro-2H,10H-2,4a,10-triaza-dibenzo[a,d]cycloheptene-5,11-dione]: the remaining activity at 10 µM was determined as 17% and the IC50 was greater than 1000 nM.

With `O=C1Nc2ccc(-c3ccc(Cl)cc3)cc2C(=O)N2CCN(C(=O)Cc3ccccc3)CC12` (stereo not shown) [Compound A32, 7-(4-Chlorophenyl)-2-phenylacetyl-1,3,4,11a-tetrahydro-2H,10H-2,4a,10-triazadibenzo[a,d]-cycloheptene-5,11-dione], the remaining activity at 10 µM came out at 76%.

On to `CC(C)(C)CCN1CCN2C(=O)c3cc(-c4ccc(Cl)cc4F)ccc3NC(=O)C2C1` (stereo not shown) [Compound A33], for which the remaining activity at 10 µM is 72% and the IC50 is greater than 1000 nM.

Regarding `CC(C)(C)[C@H](O)C(=O)N1CCN2C(=O)c3cc(-c4ccc(Cl)cc4)ccc3NC(=O)C2C1` (stereo partly drawn) [Compound A34, 7-(4-Chlorophenyl)-2-((S)-2-hydroxy-3,3-dimethylbutyryl)-1,3,4,11a-tetrahydro-2H,10H-2,4a,10-triazadibenzo[a,d]cycloheptene-5,11-dione], the IC50 fell in the range of 100 to 1000 nM.

For the molecule `O=C(C(=O)N1CCN2C(=O)c3cc(-c4ccc(Cl)cc4)ccc3NC(=O)C2C1)c1ccccc1` (stereo not shown) [Compound A35, 7-(4-Chlorophenyl)-2-(2-oxo-2-phenylacetyl)-1,3,4,11a-tetrahydro-2H,10H-2,4a,10-triaza-dibenzo[a,d]cycloheptene-5,11-dione], the remaining activity at 10 µM was 11% and the IC50 is greater than 1000 nM.

For the molecule `O=C1Nc2ccc(-c3ccc(Cl)cc3)cc2C(=O)N2CCN(C(=O)c3cscn3)CC12` (stereo not shown) [Compound A36, 7-(4-Chlorophenyl)-2-(thiazole-4-carbonyl)-1,3,4,11a-tetrahydro-2H,10H-2,4a,10-triaza-dibenzo[a,d]cycloheptene-5,11-dione], the 50% inhibitory concentration (IC50) was in the range of 100 to 1000 nM.
